Test results reported in publication PMC6934184, “Selective DNA-PKcs inhibition extends the therapeutic index of localized radiotherapy and chemotherapy” (The Journal of Clinical Investigation, 2019).
Several values for one entry are separate records, joined by “and”; a condition that tells them apart may be missing. Identical values can stand only once. Entries after “also recorded” stand apart in the source; their conditions may differ.

How the values were obtained:
[1] = test system: HAP-1 DNA-PK–null cells; assay: clonogenic survival with IR; type: cell-based, human; conditions: 5 μM concomitant
Description: (§1) Exponentially growing HAP-1 DNA-PK proficient or deficient cells were seeded into 6-well plates and allowed to re-attach. Cells were then incubated with vehicle (DMSO) or NU5455 (5 µM) 1 hour prior to irradiation and for a further 24 hours post-irradiation. Cells were then washed in PBS and incubated in drug-free medium to allow for colony formation.
(§2) To quantify the number of proliferating versus confluent cells, cells were pulsed with 5-ethynyl-2’-deoxyuridine (EdU), and labeled using the Click-iT Plus EdU Alexa Fluor 647 Flow Cytometry Assay Kit together with FxCycle Violet Stain to label DNA (both Thermo Fisher) following the manufacturer’s instructions. Samples of cells taken from tho se used in the clonogenic assay were used to confirm the percentage of cells in each cell cycle phase.
(§3) Samples were acquired on a Symphony A5 flow cytometer (Becton Dickinson, UK).
(§4) Cell cycle phase status was also confirmed by microscopy, using cells grown on coverslips i n 6-well plates. […] Coverslips were mounted using Prolong Glass with NucBlue (ThermoFisher) and images were acquired on the Leica TCS SP8 confocal fluorescence […]
(§5) Treated cells were fixed with 10% (w/v) trichloroacetic acid (Fisher) at 4°C overnight. Cells were stained with sulphorhodamine B (SRB, 0.4% (w/v) in water), and cell density quantified

[2] = test system: HAP-1 cells that express 1 copy of PRKDC; assay: clonogenic survival with IR; type: cell-based, human; conditions: 5 μM concomitant
Description: as §1, §2, §3, §4, §5

[3] = test system: SJSA-1 tumor xenografts; assay: subcutaneous SJSA-1 xenograft with parenteral etoposide; type: in vivo, CD-1 nude mice
Description: Combining systemic administration of etoposide + NU5455 in vivo
SJSA1 cells (1 x 10^7 cells/mouse in 50 µl, 50% v/v Matrigel) were implanted s.c. into the right flank of female CD-1 nude mice. When tumor volumes reached 103-121 mm3 mice were treated daily, for five consecutive days, with NU5455 (30 mg/kg or 100 mg/kg once -daily p.o. in NMP:Encapsin (30% aq):PEG4000 (1:6:3 v/v/v) ) or vehicle, followed immediately with etoposide (5 mg/kg i.p. in saline). Body weight and tumor volume measurements were taken daily during treatment and three times per week post -treatment. Tumor volume was calculated from two-dimensional electronic caliper measurements (Mitutoyo) using the equation ‘width2 x length/2’, where width was the smaller side, and length the longer dimension of the tumor. Mice were humanely killed when; (i) an adverse effect on clinical condition was evident, (ii) tumor bilateral measurements reached 10 mm x 10 mm, (iii) a tumor measurement in any di mension reached 15 mm, or (iv) at study termination. […]

[4] = test system: Huh7 subcutaneous xenografts; assay: subcutaneous Huh7 xenograft with intratumoral doxorubicin-eluting beads; type: in vivo, CD-1 nude mice
Description: DC M1 beads were loaded with doxorubicin at 25 mg/mL as described in Supplemental Methods. Huh7 cells (5 × 10^6 cells per mouse in 50 μL, 50% vol/vol Matrigel) were implanted s.c. into the right flank of female CD-1 nude mice to generate subcutaneous Huh7 xenografts (180–220 mm^3). Mice were then treated with 5 μL doxorubicin-loaded or unloaded beads suspended in 30 μL saline administered via an intratumoral injection along the length of each tumor using a 29G needle. One hour after bead implantation, twice-daily dosing with 30 mg/kg NU5455 or vehicle control (1% vol/vol acetic acid in water) was commenced via oral gavage (9-hour dosing interval) and continued for up to 20 days. Tumor volumes were calculated daily using bilateral caliper measurements as described in Supplemental Methods, and body weight measurements taken daily throughout treatment. […]
γH2AX immunohistochemistry in HCC tumor xenografts
FFPE tumor sections (4 µm) were dewaxed in xylene and hydrated in descending concentrations of ethanol. Endogenous tissue peroxidase activity was quenched using 3% v/v hydrogen peroxide. Antigen retrieval was performed using 1 mM EDTA, pH 8.0 in a microwave (Kenwood). Tissue sections were blocked for avidin and biotin using the […]
Avidin/Biotin Blocking Kit (Vector Laboratories), and washed in TBST be tween all subsequent steps. Slides were blocked in 20% v/v pig serum in DI water, and sections incubated with an antibody against γH2AX ( 20E3, Cell Signaling Technology #9718, 1 in 200 in TBST) in a humidified container at 4°C overnight.
Sections were th en incubated with polyclonal swine anti -rabbit IgG, biotinylated (Dako #E0353, 1 in 200 in TBST), followed by VectaStain RTU Elite ABC reagent (Vector Laboratories). Slides were stained using DAB Peroxidase Substrate Kit (Vector Laboratories) prepared according to the manufacturer’s instructions. Slides were washed in DI water, then counterstained in filtered haematoxylin s olution. Background staining was minimized by exposure to acid alcohol solution (1% v/v hydrochloric acid in 70% v/v ethanol, Fisher), and staining blued by incubation in Scott’s tap water. Stained slides were then dehydrated in ascending concentrations of ethanol, followed by clearing in xylene. Glass coverslips (Dako) were mounted onto slides using DPX mounting medium. pDNA-PKcs Ser2056 immunohistochemistry in HCC tumor xenografts
Tumor sections were dewaxed in xylene, hydrated, and endogenous peroxidase activity quenched as detailed above. Antigen retrieval was performed in 1X citrate buffer (10 mM citric acid (Acros), pH 6.0 + 0.5% v/v Tween 20), using a decloaker (A. Menarini Diagnostics).
Tissue sections were blocked in 1% w/v BSA and 1% v/v normal go at serum in PBS (1 hour, RT). Sections were then incubated at 4°C overnight in a humidified container with an antibody against pDNA -PKcs Ser2056 (Abcam #18192, 1:1000 in 1% w/v BSA and 1% v/v […]
Sections were washed with TBST before incuba tion with EnVision+ anti -rabbit Polymer-HRP solution (Dako #K4002). Slides were washed in TBST , and antibody conjugates visualized by incubation with ImmPACT DAB peroxidase substrate working solution. […]
IHC slides were digitized via conversion using the Aperio ScanScope CS Brightfield scanner (Leica Biosystems) at x20 zoom. Percentage hepatocyte nuclear positivity for pDNA -PKcs Ser2056 and γH2AX was determined using a nuclear algorithm generated with the Aperio ImageScope software v11.2.0.780 (Leica Biosystems). […]

## CN(C(=O)CN1CCOCC1)c1ccc2sc3c(-c4cccc5c(=O)cc(N6CC7CCC(C6)O7)oc45)cccc3c2c1 [NU5455]
[1]
  response to IR (clonogenic): did not alter the response
[2]
  clonogenic cell-killing effect of 1–4 Gy IR: markedly increased
[3]; NU5455 30 mg/kg oral + etoposide 5 mg/kg i.p., 5 consecutive days
  enhancement of etoposide antitumor effect: does not significantly enhance; also recorded: did not enhance it significantly
[3]; NU5455 100 mg/kg oral + etoposide 5 mg/kg i.p.
  body weight: increased weight loss by day 8
[3]; NU5455 100 mg/kg oral + etoposide 5 mg/kg i.p., 5 sequential days
  enhancement of etoposide antitumor activity: potentiated significantly
[3]; day 8, NU5455 100 mg/kg oral + etoposide 5 mg/kg i.p.
  animals requiring humane intervention (>15% body-weight loss): 2 of 10 and 2
[3]; greater dose (100 mg/kg oral)
  tolerability, NU5455 alone: well tolerated by itself
[4]; 72 hours of treatment, doxorubicin-loaded beads, immunohistochemistry
  DNA-PKcs phosphorylation (Ser2056) in tumors: reduced by NU5455 treatment
[4]; 72 hours, immunohistochemistry
  DNA damage (γH2AX) in area surrounding doxorubicin-eluting beads: significantly augmented
[4]; NU5455 30 mg/kg b.i.d. with unloaded beads, or doxorubicin beads with vehicle
  mean RTV4 value, monotherapy: 10.6 days
[4]; NU5455 30 mg/kg oral b.i.d. + doxorubicin-eluting beads
  body weight or clinical condition versus vehicle alone: no additional impact
[4]; NU5455 30 mg/kg oral b.i.d. + intratumoral doxorubicin-eluting beads
  mean RTV4 value, combination: 17.8 days
